Marks after values point to notes of the source that are not given here.
Experiments:
[1] = test system: E. coli ATCC 11229; test: Shaking flask method, antibiotics/CPβCD complexes on cellulose fibres; format: cell-based, Escherichia coli; conditions: CPβCD complex
[2] = Water solubility of triclosan and butylparaben (UV spectrophotometer); format: physicochemical; conditions: FIGS. 13 and 14; complex with CPβCD
Text: The triclosan/CPβCD or butylparaben/CPβCD complex can be prepared by adopting the procedures described by Arias et al. (1997)^7 and Mura et al. (2002)^8. […] The solubility of triclosan or butylparaben can be determined by a UV spectrophotometer at wavelength of 282 nm and 256 nm, respectively.

[3] = concentration 0.03 % wt, contacting time 1 hour
[4] = concentration 0.06 % wt, contacting time 1 hour
[5] = concentration 0.125 % wt, contacting time 1 hour
[6] = concentration 0.25 % wt, contacting time 1 hour
[7] = concentration 0.5 % wt, contacting time 1 hour
[8] = concentration 1 % wt, contacting time 1 hour
[9] = contacting time 0.5 min, antibiotic 0.5% wt based on cellulose fibres
[10] = contacting time 1 min, antibiotic 0.5% wt based on cellulose fibres
[11] = contacting time 3 min, antibiotic 0.5% wt based on cellulose fibres
[12] = contacting time 10 min, antibiotic 0.5% wt based on cellulose fibres
[13] = contacting time 30 min, antibiotic 0.5% wt based on cellulose fibres
[14] = contacting time 60 min, antibiotic 0.5% wt based on cellulose fibres

Row | Structure (SMILES) | Growth inhibition (%) [1, 3] [%] | Growth inhibition (%) [1, 4] [%] | Growth inhibition (%) [1, 5] [%] | Growth inhibition (%) [1, 6] [%] | Growth inhibition (%) [1, 7] [%] | Growth inhibition (%) [1, 8] [%] | Growth inhibition (%) [1, 9] [%] | Growth inhibition (%) [1, 10] [%] | Growth inhibition (%) [1, 11] [%] | Growth inhibition (%) [1, 12] | Growth inhibition (%) [1, 13] [%] | Growth inhibition (%) [1, 14] [%] | water solubility as a function of CPβCD content [2]
1 | CCCCOC(=O)c1ccc(O)cc1 [Butylparaben, butylparaben] | 4.54 | 9.09 | 54.6 | 81.8 | 99.9 | 100 | 50.0 | 61.9 | 95.8 | 100**** % | 100 | 100 | linear increased with the CPβCD content
2 | Oc1cc(Cl)ccc1Oc1ccc(Cl)cc1Cl [Triclosan] | 23.2 | 50.2 | 68.1 | 87.1 | 99.7 | 100 | 24.6 | 37.7 | 61.0 | 95.8% | 99.6 | 100 | linear increased with the CPβCD content

From patent US20140303322A1, “ANTIMICROBIAL AND BACTERIOSTATIC-MODIFIED POLYMERS FOR CELLULOSE FIBRES” (priority 2012, published 2014)
